Results from article PMC9370056, “Pyrimidines-Based Heterocyclic Compounds: Synthesis, Cytoxicity Evaluation and Molecular Docking” (Molecules, 2022).
Structures can show the parent of a compound that is named as a salt.

Key:
PC3 and MRC-5 cell lines = assay: Selectivity index, CC50 on normal cells / IC50 on cancer cells; assay type: cell-based, human; settings: CC50 on MRC-5 / IC50 on PC3
Description: The selectivity index (SI) is a measure of the drug candidate’s selectivity towards cancer cells rather than normal cells. It can be calculated as the ratio between the tested compound CC50 on normal cells and its IC50 on cancer cells.

[1] = tested on: normal human lung fibroblasts (MRC-5)
Description: (§3) Preliminary in vitro anticancer activity of two compounds (2, and 3a) against the growth of five human cancer cell lines (prostate carcinoma PC3, liver carcinoma HepG-2, human colon cancer HCT-116, human breast cancer MCF-7, human lung cancer A-549) and normal human lung fibroblasts (MRC-5) were performed using the MTT assay as described in the experimental section. The inhibitory potency of the screened compounds against the tested cell lines was compared to vinblastine sulfate as a reference anticancer drug.
(§4) MRC-5 (normal human Lung fibroblast cells) were obtained from VACSERA Tissue Culture Unit. […] The normal human lung fibroblasts (MRC-5) cells were propagated in Dulbecco’s Modified Eagle’s Medium (DMEM) supplemented with 10% heat-inactivated fetal bovine serum, 1% L-glutamine, HEPES buffer, and 50µg/mL gentamycin. […] All cells were maintained at 37 °C in a humidified atmosphere with 5% CO2 and were subcultured two times a week. Chemicals used: Dimethyl sulfoxide (DMSO), MTT (3-(4,5-dimethylthiazol-2-yl)-2,5-diphenyl tetrazolium bromide), crystal violet, and trypan blue dye were purchased from Sigma (St. Louis, MO, USA). Fetal bovine serum, DMEM, RPMI-1640, HEPES buffer solution, L-glutamine, gentamycin, and 0.25% trypsin-EDTA were purchased from Lonza. Crystal violet stain (1%): composed of 0.5% (w/v) crystal violet and 50% methanol then made up to volume with deionized water and filtered through a Whatman No.1 filter paper.
(§5) For cytotoxicity assay, the normal human lung fibroblasts (MRC-5) cells were seeded in a 96-well plate at a cell concentration of 1 × 10^4 cells per well in 100 µL of growth medium. Fresh medium containing different concentrations of the test sample was added after 24 h of seeding. Serial two-fold dilutions of the tested chemical compound were added to confluent cell monolayers dispensed into 96-well, flat-bottomed microtiter plates (Falcon; Franklin, NJ, USA) using a multichannel pipette. The microtiter plates were incubated at 37 °C in a humidified incubator with 5% CO2 for a period of 24 h. Three wells were used for each concentration of the test sample. Control cells were incubated without the test sample and with or without DMSO. […] After incubation of the cells, viable cell yield was determined by a colorimetric method. After incubating for 24 h, the numbers of viable cells were determined by the MTT test. The cytotoxic concentration (CC50), the concentration required to cause toxic effects in 50% of intact cells, was estimated from graphic plots of the dose–response curve for each conc. using GraphPad Prism software (San Diego, CA. USA).

[2] = tested on: human prostate carcinoma cell line PC3; assay: MTT viability assay, PC3 prostate carcinoma; assay type: cell-based; settings: for IC50: 24 h
Description: (§1) For antitumor assays, the human prostate carcinoma cell line PC3 was suspended in medium at a concentration of 5 × 10^4 cell/well in Corning® 96-well tissue culture plates, then incubated for 24 h. The tested compounds were then added into 96-well plates (three replicates) to achieve eight concentrations for each compound. Six vehicle controls with media or 0.5 % DMSO were run for each 96-well plate as a control. […] Briefly, the media was removed from the 96-well plate and replaced with 100 µL of fresh culture RPMI-1640 medium without phenol red then 10 µL of the 12 mM MTT stock solution (5 mg of MTT in 1 mL of PBS) to each well including the untreated controls. The 96-well plates were then incubated at 37 °C and 5% CO2 for 4 h. An 85 µL aliquot of the media was removed from the wells, and 50 µL of DMSO was added to each well and mixed thoroughly with a pipette and incubated at 37 °C for 10 min. Then, the optical density was measured at 590 nm with the microplate reader (Sunrise, Tecan Inc, Morrisville, NC, USA) to determine the number of viable cells and the percentage of viability was calculated as [(ODt/ODc)] × 100% where ODt is the mean optical density of wells treated with the tested sample and ODc is the mean optical density of untreated cells. The relation between surviving cells and drug concentration was plotted to obtain the survival curve of each tumor cell line after treatment with the specified compound.

liver carcinoma HepG-2 = assay: MTT assay, HepG-2; assay type: cell-based; settings: Homo sapiens, HepG2; Table 1, MTT
Description: [The procedure below names another cell line; the source lists this cell line under the same test.] as §1

[3] = MTT cytotoxicity assay, normal lung fibroblasts MRC-5; settings: human, MRC-5 normal lung fibroblast cells
Description: as §3, §4, §5

[4] = tested on: normal human lung fibroblasts (MRC-5); assay: as above; settings: Homo sapiens, MRC5, 24 h, read-out: IC50 Values MRC-5
[5] = tested on: human colon cancer HCT-116; assay: MTT assay, HCT-116; assay type: cell-based; settings: Table 1, MTT
Description: [The procedure below names another cell line; the source lists this cell line under the same test.] as §1

human lung cancer A-549 = assay: MTT assay, A-549; assay type: cell-based; settings: A549, Table 1, MTT
Description: [The procedure below names another cell line; the source lists this cell line under the same test.] as §1

[6] = tested on: human breast cancer MCF-7; assay: MTT assay, MCF-7; assay type: cell-based; settings: MCF7, Table 1, MTT
Description: [The procedure below names another cell line; the source lists this cell line under the same test.] as §1

MRC cell line = assay: Microscopic observation of treated normal cells (crystal violet); assay type: cell-based, human; settings: 50 µg/mL, 100×, relative to untreated cells
Description: (§2) This experiment was performed as previously described in the procedure for antitumor activity. After the end of the treatment at 50 µg/mL concentration, the plates were inverted to remove the medium, the wells were washed three times with 300 µL of phosphate buffered saline (pH 7.2), and then the cells were fixed to the plate with 10% formalin for 15 min at room temperature. The fixed cells were then stained with 100 µL of 0.25% crystal violet for 20 min. The stain was removed, and the plates were rinsed using deionized water to remove the excess stain and then allowed to dry. The cellular morphology was observed using an inverted microscope (CKX41; Olympus, Tokyo, Japan) equipped with a digital microscopy camera to capture the images representing the morphological changes compared to control cells. The cytopathic effects (morphological alterations) were microscopically detected at 100×.

PC3 cell line = assay: Microscopic observation of treated tumor cells (crystal violet); assay type: cell-based, human; settings: 50 µg/mL, 100×, relative to untreated cells
Description: as §2

[7] = Homo sapiens, Table 2, MTT, three replicates

Compound	SI (selectivity index) (PC3 and MRC-5 cell lines)	CC50 at 24 h [3] [µM]	Morphological changes of MRC cells (MRC cell line)	Morphological changes of PC3 cells (PC3 cell line)	IC50 [2, 7] [µM]	other results
3-Hydroxy-6-oxo-8-phenyl-2,6-dihydro-1H-pyrimido[2,1-c]-1,2,4-triazine-7-carbonitrile [Compound 6]	2.17					CC50 [1]: 453 ± 13 µM; IC50 ([2]; Table 2, MTT, three replicates): 208 ± 7 µM
N#Cc1c(-c2ccccc2)nc(NN)[nH]c1=O [Compound 2, 2-Hydrazino-6-oxo-4-phenyl-1,6-dihydropyrimidine-5-carbonitrile]	2.05	532 ± 14				IC50 (liver carcinoma HepG-2): 99 µM; IC50 [4]: 532 µM; IC50 [5]: 180 µM; IC50 (human lung cancer A-549): 264 µM; IC50 [6]: 236 µM; IC50 ([2]; Homo sapiens, Table 1, MTT): 258 µM
N#Cc1c(-c2ccccc2)nc(NN=Cc2ccccc2)[nH]c1=O [Compound 3a, 2-(2-Benzylidenehydrazinyl)-6-oxo-4-phenyl-1,6-dihydropyrimidine-5-carbonitrile]	0.99	92 ± 3				IC50 (liver carcinoma HepG-2): 59 µM; IC50 [4]: 92 µM; IC50 [5]: 149 µM; IC50 (human lung cancer A-549): 98 µM; IC50 [6]: 81 µM; IC50 ([2]; Homo sapiens, Table 1, MTT): 93 µM
N#Cc1c(-c2ccccc2)nc(N/N=C/c2ccc(Br)cc2)[nH]c1=O [Compound 3b, 2-(2-(4-Bromobenzylidene)hydrazinyl)-6-oxo-4-phenyl-1,6-dihydropyrimidine-5-carbonitri-le]		147 ± 4	no significant apoptotic effect	the cancer cells shrank and lost their normal shape	21 ± 1	
N#Cc1c(-c2ccccc2)nc(N/N=C/c2ccc(Cl)cc2)[nH]c1=O [Compound 3c, 2-(2-(4-Chlorobenzylidene)hydrazinyl)-6-oxo-4-phenyl-1,6-dihydropyrimidine-5-carbonitri-le]	1.93	675 ± 19			349 ± 9	
N#Cc1c(-c2ccccc2)nc(N/N=C/c2ccccc2Cl)[nH]c1=O [Compound 3d, 2-(2-(2-Chlorobenzylidene)hydrazinyl)-6-oxo-4-phenyl-1,6-dihydropyrimidine-5-carbonitri-le]	2.52	44 ± 1			17 ± 1	fold more potent than vinblastine sulfate ([2]; PC3, from IC50 values): 2 to 3 fold
Cc1ccccc1/C=N/Nc1nc(-c2ccccc2)c(C#N)c(=O)[nH]1 [Compound 3e, 2-(2-(2-Methylbenzylidene)hydrazinyl)-6-oxo-4-phenyl-1,6-dihydropyrimidine-5-carboni-trile]	2.34	428 ± 16			182 ± 5	
COc1cccc(/C=N/Nc2nc(-c3ccccc3)c(C#N)c(=O)[nH]2)c1 [Compound 3f, 2-(2-(3-Methoxybenzylidene)hydrazinyl)-6-oxo-4-phenyl-1,6-dihydropyrimidine-5-carbo-nitrile]		339 ± 11	no significant apoptotic effect	the cancer cells shrank and lost their normal shape	88 ± 2	
N#Cc1c(-c2ccccc2)nc(N/N=C/c2ccc(O)cc2)[nH]c1=O [Compound 3g, 2-(2-(4-Hydroxybenzylidene)hydrazinyl)-6-oxo-4-phenyl-1,6-dihydropyrimidine-5-carboni-trile]		311 ± 14	no significant apoptotic effect	the cancer cells shrank and lost their normal shape	64 ± 3	
N#Cc1c(-c2ccccc2)nc(NN=CC=Cc2ccccc2)[nH]c1=O [Compound 3h, 6-Oxo-4-phenyl-2-(2-(3-phenylallylidene)hydrazinyl)-1,6-dihydropyrimidine-5-carbonitrile]		180 ± 9	no significant apoptotic effect	the cancer cells shrank and lost their normal shape	44 ± 2	
N#Cc1c(-c2ccccc2)nc(NN=Cc2ccc([N+](=O)[O-])cc2)[nH]c1=O [Compound 3i, 2-(2-(4-Nitrobenzylidene)hydrazinyl)-6-oxo-4-phenyl-1,6-dihydropyrimidine-5-carbonitrile]	2.18	82 ± 3			37 ± 2	
N#Cc1c(-c2ccccc2)nc(N/N=C2\C(=O)Nc3ccccc32)[nH]c1=O [Compound 4, 6-Oxo-2-(2-(isatin-3-ylidene)hydrazinyl)-4-phenyl-1,6-dihydropyrimidine-5-carbonitrile]	0.57	348 ± 11			603 ± 19	
N#Cc1c(-c2ccccc2)nc2n(c1=O)C(c1ccccc1)C(c1ccccc1)=NN2 (stereo not drawn) [Compound 5, 6-Oxo-3,4,8-triphenyl-4,6-dihydro-1H-pyrimido[2,1-c]-1,2,4-triazine-7-carbonitrile]		263 ± 7	no significant apoptotic effect	the cancer cells shrank and lost their normal shape	72 ± 2	
CC[C@]1(O)C[C@@H]2CN(CCc3c([nH]c4ccccc34)[C@@](C(=O)OC)(c3cc4c(cc3OC)N(C)[C@H]3[C@@](O)(C(=O)OC)[C@H](OC(C)=O)[C@]5(CC)C=CCN6CC[C@]43[C@@H]65)C2)C1 [Vinblastine sulfate, reference compound]	1.40	65 ± 2				IC50 (liver carcinoma HepG-2): 3 µM; IC50 [4]: 65 µM; IC50 [5]: 4 µM; IC50 (human lung cancer A-549): 27 µM; IC50 [6]: 6 µM; IC50 ([2]; Homo sapiens, Table 1, MTT): 46 µM
